Experiments:
[1] = Photoswitching in the absence or presence of sulfate (1H NMR, DMSO-d6); assay type: physicochemical
Procedure: Photoswitching in the presence of sulfate was performed in one of two methods. In the first method, 0.5 mol ratio (sulfate to 2PyDIG^+) tetramethylammonium sulfate was added to a freshly prepared 10 mM E,E-2PyDIG·HOTf in DMSO-d6 solution in a quartz cuvette. After the addition of sulfate, the solution was irradiated with a UV (Hg lamp) light for 2 hours while stirring. The solution was then heated statically for 36 hours, at which point the solution was left to cool at room temperature for approximately 30 minutes, and a ^1H NMR spectrum was collected. In the second method, a freshly prepared 10 mM E,E-2PyDIG·HOTf in DMSO-d6 solution was irradiated with UV (Hg lamp) light for 2 hours while stirring. Following this, tetramethylammonium sulfate was added in either 0.5 or 1.0 mol ratio (sulfate to 2PyDIG^+). The solution was then heated statically for 36 hours, at which point the solution was left to cool at room temperature for approximately 30 minutes, and a ^1H NMR spectrum was collected. ^1H NMR spectra were collected on 500 μL aliquots of the freshly prepared samples, samples after photoirradiation, and samples after thermal treatment at 50° C. for 36 hours.

[2] = Sulfate binding constants, average of the UV-vis and NMR titrations, and E,E − Z,Z comparison
Procedure: For absorption titration experiments, a freshly prepared stock solution of 1.5 mM E,E-2PyDIG·HOTf in DMSO-d6 was added to a 1 mm quartz cuvette, and a tetramethylammonium sulfate solution (3.6 mM in DMSO-d6) was added, and the solution was mixed. Absorption spectra were collected after each addition using a UV-Visible spectrophotometer at ca. 24° C. For the Z,Z photoisomer, a freshly prepared 1.5 mM 2PyDIG·HOTf sample was irradiated for 1 hour before titration experiments were prepared and carried out in the same manner as for the E,E isomer.
The binding constants from the three UV-Vis titrations were calculated using commercial software based on the changes in the 2PyDIG^+ absorption maximum value at 315 nm and 320 nm for the E,E and Z,Z photoisomers, respectively. Fitting was performed by assigning the 1:0 and 1:2 PyDIG:sulfate adducts as spectra from before addition of sulfate and after 3 molar equivalents of sulfate, respectively.
For ^1H NMR titrations, a freshly prepared stock solution of 1.5 mM 2PyDIG·HOTf in DMSO-d6 was added to twelve NMR tubes, and a tetramethylammonium sulfate solution (10 mM in DMSO-d6) was added in varying stoichiometric amounts. Clean DMSO-d6 was then added to achieve a final volume of 500 μL. Titrations were performed with both a micropipette and a micrometer syringe. For the Z,Z photoisomer, a freshly prepared 1.5 mM 2PyDIG·HOTf sample was irradiated for 1 hour before the six titration experiments were prepared and carried out in the same manner as for the E,E isomer. To ensure that the PyDIG concentration was not changing as a result of precipitation, dimethylsulfone was added as an internal standard to the 1:2 PyDIG:SO4 solution. It was determined that the concentration of PyDIG remained constant throughout the experiment.
The binding constants from the four ^1H NMR titrations were calculated using commercial software based on the changes in the guanidinium —N—H chemical shifts of the 2PyDIG protons. During fitting, only the monoprotonated 2PyDIG cation was considered, as the Bjerrum pair of 2PyDIG cation and triflate in DMSO was estimated to have a Kassociation value of 156 M−^1. Fitting was performed by locking the 1:0 and 1:2 PyDIG:sulfate adducts at known chemical shift values to reduce the number of adjustable parameters to refine. The corresponding speciation and residual plots for each trial made. Attempts to increase the experimental concentration of 2PyDIG·HOTf higher than 1 mM produced solids, which prevented NMR titrations at higher concentrations.

[3] = Photoirradiation, thermal relaxation and cycling monitored by 1H NMR in DMSO-d6; assay type: physicochemical; conditions: for time to reach thermal equilibrium: 10 mM, photoirradiated
Procedure: In a typical photoirradiation NMR experiment, 3 mL of a freshly made deuterated DMSO solution was placed in a quartz cuvette (1 cm×1 cm×4.5 cm), stirred, and irradiated with UV-visible light using an unfiltered super high-pressure mercury lamp with emissions in the long-wave UV region and in the visible region at the yellow, green, blue, and violet wavelengths (254-800 nm). From the irradiated solution, 500 μL aliquots were removed with a micropipette and transferred to NMR tubes. For studies including excess triflate, a stock solution (200 mM) of tetramethylammonium triflate in DMSO-d6 was added before irradiation to obtain the desired concentration. Experiments were carried out in the same fashion as above. All measurements were obtained on the irradiated solutions within 1 hour of irradiation. ^1H spectra were recorded on a Bruker AvanceIII-400 MHz NMR spectrometer equipped with a 5 mm PABBO probe. The residual solvent signal ((CD3)2SO δH=2.50 ppm) was considered as an internal reference to calibrate spectra and the temperature was held at 24° C. The chemical shifts used to monitor photoisomerization were the set of doublets at 8.67 and 8.80 ppm and triplets at 7.54 and 7.68 ppm for the E,E and Z,Z isomers, respectively. […] The sample underwent hydrolysis back to the aldehyde only under forcing conditions of heating the sample at 50° C. for 2 weeks in water, where the aldehyde proton at 9.86 ppm started to resolve.
Cycling studies were performed by irradiating a freshly prepared, 9.94 mM 2PyDIG·HOTf DMSO-d6 solution in an NMR tube at 24° C. After 6 hour, a ^1H NMR spectrum was collected to determine the photoisomerization value, and the sealed NMR tube was placed in a 50° C. oven. The sample was heated statically for 24 hour, at which point the solution was left to cool at room temperature for approximately 30 min, and a ^1H NMR spectrum was collected to determine the thermal relaxation value. This cycling process was repeated three more times.

[4] = Control, no SO4 added, mol ratio 0
[5] = SO4 added after irradiation, mol ratio 0.5
[6] = SO4 added after irradiation, mol ratio 1.0

Compound: N=C(N/N=C/c1ccccn1)N/N=C/c1ccccn1.O=S(=O)(O)C(F)(F)F [E,E-2PyDIG, bis(2-((E)-pyridin-2-ylmethylene)hydrazineyl)methaniminium trifluoromethanesulfonate]
- Relative Amount of E,E-2PyDIG+, before irradiation [1, 4]: 97.4 ± 0.6%
- Relative Amount of E,E-2PyDIG+, thermal equilibrium [1, 4]: 70.5 ± 0.9%
- Relative Amount of E,E-2PyDIG+, after irradiation ([1]; Control, no SO4 added, mol ratio 0, PSS): 32.3 ± 4.4%
- Relative Amount of E,E-2PyDIG+, after irradiation [1, 5]: 33.2 ± 5.3%
- Relative Amount of E,E-2PyDIG+, before irradiation [1, 5]: 95.1 ± 1.4%
- Relative Amount of E,E-2PyDIG+, thermal equilibrium [1, 5]: 93.1 ± 3.3%
- Relative Amount of E,E-2PyDIG+, after irradiation [1, 6]: 31.0 ± 4.7%
- Relative Amount of E,E-2PyDIG+, before irradiation [1, 6]: 93.4 ± 2.9%
- Relative Amount of E,E-2PyDIG+, thermal equilibrium [1, 6]: 91.6 ± 1.9%
- Relative Amount of E,E-2PyDIG+, before irradiation ([1]; SO4 added before irradiation, mol ratio 0.5): 91.1 ± 1.2%
- Relative Amount of E,E-2PyDIG+, thermal equilibrium ([1]; SO4 added before irradiation, mol ratio 0.5, 50° C., 36 hours): 91.2 ± 1.4 ^ %
- Relative Amount of E,E-2PyDIG+, thermal equilibrium ([1]; SO4 added before irradiation, mol ratio 0.5, 50° C., 36 hours, listed as 2PyDIG·HOTf): 91.2±1.4%
- Relative Amount of E,E-2PyDIG+, after irradiation ([1]; SO4 added before irradiation, mol ratio 0.5, 2 hours UV): 32.5 ± 3.8 ^ %
- Relative Amount of E,E-2PyDIG+, after irradiation ([1]; SO4 added before irradiation, mol ratio 0.5, 2 hours UV, listed as 2PyDIG·HOTf): 32.5±3.8%
- Relative Amount of E,E-2PyDIG+, before irradiation ([1]; SO4 added before irradiation, mol ratio 0.5, listed as 2PyDIG·HOTf): 92.8±1.4%
- E,E isomer before sulfate addition, before irradiation ([1]; ca. 10 mM 2PyDIG·HOTf in DMSO-d6, before addition of 0.5 mol ratio sulfate): 93.1±1.2%
- log b11, E,E − Z,Z Difference ([2]; Eq. 2, difference of log binding constants of the isomers): 5.40±0.45
- log b21, E,E − Z,Z Difference ([2]; Eq. 3, difference of log binding constants of the isomers): 8.31 ± 0.56
- log b21, E,E Avg Value ([2]; Eq. 3, precision-weighted average of UV-vis and NMR titrations, DMSO-d6, 24° C.): 11.39±0.55
- log b12, E,E − Z,Z Difference ([2]; Eq. 4, difference of log binding constants of the isomers): 7.91 ± 0.76
- log b12 of the 1:2 adduct ([2]; as printed in text with unit, average value of Table 2): 11.91±0.74 M^−1
- log K12, addition of the second sulfate to the 1:1 adduct ([2]; stepwise constant, DMSO-d6): 4.7±1.5
- time required to reach thermal equilibrium ([3]; 1 mM solution, even at elevated temperatures): greater than 20 days
- photoconversion to the Z,Z isomer ([3]; 1.5 mM (low concentration), UV irradiation, DMSO-d6, 24° C.): 95.6±0.4%
- time to reach photoconversion to the Z,Z isomer ([3]; 1.5 mM, UV irradiation): less than 15 min
- Z,Z isomer initially present ([3]; 1.5 mM, before UV irradiation, DMSO-d6): 5.5±0.5%
- percent Z,Z isomer in cycling, after irradiation ([3]; 10 mM in DMSO, 6-hour irradiation): 69%
- percent Z,Z isomer in cycling, after dark equilibration ([3]; 10 mM in DMSO, 24-hour dark equilibration): 25%
- Z,Z isomer at PSS ([3]; 10 mM solution, UV irradiation): 67.7±4.4%
- time to reach PSS ([3]; 10 mM solution, UV irradiation): more than 2 hours
- time to reach thermal equilibrium ([3]; 24° C.): 4 days
- time to reach thermal equilibrium ([3]; 50° C.): less than 24 h
- experimental free energy difference between E,E and Z,Z forms (Eq. 1) ([3]; in the presence of triflate): 0.5 kcal/mol
- equilibrium constant of thermal relaxation back to E,E from Z,Z (Eq. 1) ([3]; independent of temperature): 2.38(8)
- E,E isomer at common thermal equilibrium ([3]; photoirradiated and nonirradiated solutions, thermal relaxation): 70.5±0.9%
- time to thermally equilibrate, unirradiated E,E isomer ([3]; unirradiated, 24° C.): 14 days

Reference: patent US12662403B2, “Photoswitchable guanidinium compounds for removal of oxyanions from liquid solutions” (UT-Battelle, LLC, priority 2021, dated 2026)
